In test [1] the test system is Influenza A virus. The experiment in a line: microbe, parasite or virus in culture. The following applies: MDCK.
The subject of test [2] is Influenza A virus. The experiment in a line: microbe, parasite or virus in culture. The following applies: MDCK. This is another data set of the same source.
Test [3] relates to Influenza A virus. The experiment in a line: microbe, parasite or virus in culture. The conditions noted are these: MDCK. The source holds these as a separate data set.
Test [4] has as its system Influenza A virus. The experiment in a line: microbe, parasite or virus in culture. The following applies: A/North Carolina/29/2009(H1N1), MDCK.
Test [5] has as its system Influenza A virus. The experiment in a line: microbe, parasite or virus in culture. The following applies: MDCK. The source holds these as a separate data set.
Test [6] concerns Influenza A virus. The following applies: mdck.

Where only a bound is given, the exact number is not on record here.

For the molecule `CCC(CC)O[C@@H]1C=C(C(=O)O)C[C@H](N)[C@H]1NC(C)=O` [OSELTAMIVIR CARBOXYLATE], the EC50 was 2.5 nM in the test on Influenza A virus [1]; above 200 nM with Influenza A virus [2]; above 200 nM in the test with Influenza A virus [3]; above 200 nM with Influenza A virus [4]; above 200 nM in the test on Influenza A virus [5].

As for `OC12CC3CC(C1)CC(NCc1ccc(I)s1)(C3)C2`, the EC50 in the test on Influenza A virus [6] was 1100 nM; in the test with Influenza A virus [1] it was 800 nM; with Influenza A virus [2], 400 nM; in the test with Influenza A virus [3] it was 600 nM; with Influenza A virus [5] it was 700 nM.

As for `OC12CC3CC(C1)CC(NCc1ccc(Br)s1)(C3)C2`, the EC50 in the test with Influenza A virus [1] was determined as 1400 nM; in the test with Influenza A virus [2], 700 nM; with Influenza A virus [3], 600 nM; in the test on Influenza A virus [4], 2800 nM; in the test with Influenza A virus [5], 2000 nM.

The EC50 is the concentration at which the effect is half-maximal. Read a high EC50 as a less potent agent.

The values above are taken from ChEMBL document CHEMBL4266060, “Structure-Property Relationship Studies of Influenza A Virus AM2-S31N Proton Channel Blockers” (ACS Med Chem Lett, 2018).
